Results taken from patent US20050239656A1, “Pyridine compounds or salts thereof and herbicides containing the same” (priority 2002, published 2005).

Experiments:
soybean [1] = assay: Test Example 1: foliage treatment, upland pot test; assay type: in vivo, Glycine max Merr.; conditions: crop, observed 18th to 23rd day, 0 = non-treated, 100 = complete kill
Outline: (§1)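 Applied as a post-emergence foliar spray: formulated compound diluted to 500 L/ha with spreader at 0.1% (v/v). Treatment timing—rice at 1.2–2.6, wheat at 1.3–2.4, barnyardgrass at 1.3–2.8, soybean at 0.1–0.4 leaf stage. Scored visually on a 0–100% control scale after 18–23 days.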

crabgrass [2] = assay: Test Example 2: soil surface treatment, upland pot test; assay type: in vivo, Digitaria sanguinalis L.; conditions: active ingredient 1000 g/ha, observed 20th to 28th day
Outline: (§2)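 Pre-emergence soil-surface spray, 1 d after sowing; 1/170,000 ha pots, upland soil; WP or EC formulation, set a.i. rate, 1,500 L/ha water; visual growth-control score 0–100% at days 20–28 post-treatment.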

tall morningglory = assay: Test Example 1: foliage treatment, upland pot test; assay type: in vivo, Ipomoea purpurea L.; conditions: observed 18th to 23rd day, 0 = non-treated, 100 = complete kill
Text: Upland field soil was put into a 1/170,000 ha pot, and seed of various plants were sown. Then, when the plants reached predetermined leaf stages ((1) barnyardgrass: 1.3 to 2.8 leaf stages, (2) crabgrass: 1.0 to 2.8 leaf stages, (3) green foxtail: 1.3 to 2.6 leaf stages, (4) redroot pigweed: 0.1 to 1.2 leaf stages, (5) prickly sida: 0.1 to 1.2 leaf stages, (6) velvetleaf: 0.1 to 1.2 leaf stages, (7) tall morningglory: 0.1 to 1.5 leaf stages, (8) rice: 1.2 to 2.6 leaf stages, (9) wheat: 1.3 to 2.4 leaf stages, (10) corn, 2.1 to 3.2 leaf stages, (11) soybean: 0.1 to 0.4 leaf stage), a wettable powder or emulsifiable concentrate having the compound of the present invention formulated in accordance with a usual formulation method, was weighed so that the active ingredient would be a predetermined amount, and diluted with water in an amount of 500 L/ha. To the diluted solution, 0.1% (v/v) of agricultural spreader was added. The herbicide thus adjusted was applied by a small size sprayer for foliage treatment. On the 18th to 23rd days after the application of the herbicide, the growth of the respective plants was visually observed, and the herbicidal effects were evaluated by the growth controlling degrees (%) ranging from 0 (equivalent to the non-treated plot) to 100 (complete kill), whereby the results shown in Table 3, were obtained.

prickly sida [3] = assay: Test Example 2: soil surface treatment, upland pot test; assay type: in vivo, Sida spinosa L.; conditions: active ingredient 1000 g/ha, observed 20th to 28th day
Outline: as §2

velvetleaf [4] = assay: as above; assay type: in vivo, Abutilon theophrasti MEDIC.; conditions: active ingredient 1000 g/ha, observed 20th to 28th day
Outline: as §2

barnyardgrass [5] = assay: as above; assay type: in vivo, Echinochloa crus-galli L.; conditions: active ingredient 1000 g/ha, observed 20th to 28th day, 0 = non-treated, 100 = complete kill
Outline: as §2

green foxtail [6] = assay: Test Example 1: foliage treatment, upland pot test; assay type: in vivo, Setaria viridis L.; conditions: observed 18th to 23rd day, 0 = non-treated, 100 = complete kill
redroot pigweed [7] = assay: Test Example 2: soil surface treatment, upland pot test; assay type: in vivo, Amaranthus retroflexus L.; conditions: active ingredient 1000 g/ha, observed 20th to 28th day
Outline: as §2

corn [8] = assay: as above; assay type: in vivo, Zea mays L.; conditions: active ingredient 1000 g/ha, observed 20th to 28th day
Outline: as §2

barnyardgrass [9] = assay: Test Example 3: paddy pot test, application under submerged conditions; assay type: in vivo, Echinochloa crus-galli L.; conditions: submerged application at 0.5 leaf stage, visually observed 14 days after application, 0 = non-treated, 100 = complete kill
Outline: (§3)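 After sowing seeds and planting wapato tubers in flooded paddy soil, an aqueous dilution of the formulated compound was added to the 3–4 cm flood water at early leaf stage. Percent growth control relative to the untreated plot was assessed visually on day 14.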

wheat [10] = assay: Test Example 1: foliage treatment, upland pot test; assay type: in vivo, Triticum spp.; conditions: crop, active ingredient 1000 g/ha, observed 18th to 23rd day, 0 = non-treated, 100 = complete kill
Outline: as §1

barnyardgrass [11] = assay: Test Example 1: foliage treatment, upland pot test; assay type: in vivo, Echinochloa crus-galli L.; conditions: observed 18th to 23rd day, 0 = non-treated, 100 = complete kill
Outline: as §1

rice [12] = assay: Test Example 2: soil surface treatment, upland pot test; assay type: in vivo, Oryza sativa L.; conditions: active ingredient 1000 g/ha, observed 20th to 28th day
Outline: as §2

rice [13] = assay: Test Example 1: foliage treatment, upland pot test; assay type: in vivo, Oryza sativa L.; conditions: crop, observed 18th to 23rd day, 0 = non-treated, 100 = complete kill
Outline: as §1

green foxtail [14] = assay: Test Example 2: soil surface treatment, upland pot test; assay type: in vivo, Setaria viridis L.; conditions: active ingredient 1000 g/ha, observed 20th to 28th day
Outline: as §2

japanese ribbon wapato = assay: Test Example 3: paddy pot test, application under submerged conditions; assay type: in vivo, Sagittaria pygniaea; conditions: submerged application at primary leaf stage, visually observed 14 days after application, 0 = non-treated, 100 = complete kill
Outline: as §3

crabgrass [15] = assay: Test Example 1: foliage treatment, upland pot test; assay type: in vivo, Digitaria sanguinalis L.; conditions: observed 18th to 23rd day, 0 = non-treated, 100 = complete kill
prickly sida [16] = assay: Test Example 1: foliage treatment, upland pot test; assay type: in vivo, Sida spinosa L.; conditions: observed 18th to 23rd day, 0 = non-treated, 100 = complete kill
velvetleaf [17] = assay: Test Example 1: foliage treatment, upland pot test; assay type: in vivo, Abutilon theophrasti MEDIC.; conditions: observed 18th to 23rd day, 0 = non-treated, 100 = complete kill
soybean [18] = assay: Test Example 2: soil surface treatment, upland pot test; assay type: in vivo, Glycine max Merr.; conditions: active ingredient 1000 g/ha, observed 20th to 28th day
Outline: as §2

japanese bulrush = assay: Test Example 3: paddy pot test, application under submerged conditions; assay type: in vivo, Scirpus juncoides; conditions: submerged application at 0.5 leaf stage, visually observed 14 days after application, 0 = non-treated, 100 = complete kill
Outline: as §3

corn [19] = assay: Test Example 1: foliage treatment, upland pot test; assay type: in vivo, Zea mays L.; conditions: crop, observed 18th to 23rd day, 0 = non-treated, 100 = complete kill
Outline: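 In this upland pot foliage test, corn plants at 2.1 to 3.2 leaf stages were sprayed by a small size sprayer. The spray was a conventionally formulated wettable powder or emulsifiable concentrate weighed to a set active ingredient amount, diluted in water at 500 L/ha, plus 0.1% (v/v) agricultural spreader. Visual assessment on days 18 to 23 gave growth controlling degree (%), where 0 equals untreated and 100 means complete kill.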

redroot pigweed [20] = assay: Test Example 1: foliage treatment, upland pot test; assay type: in vivo, Amaranthus retroflexus L.; conditions: observed 18th to 23rd day, 0 = non-treated, 100 = complete kill
rice (var. Nihonbare) = assay: Test Example 3: paddy pot test, transplanted rice; assay type: in vivo, Oryza sativa L.; conditions: applied 4th day after transplantation, visually observed 21st day after application, 0 = non-treated, 100 = complete kill
Outline: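 Rice (2-leaf stage) was transplanted 3 cm deep into puddled, leveled paddy soil under 3–4 cm flooding. On day 4 after transplanting, diluted wettable powder or emulsifiable concentrate was pipetted onto the water at a predetermined active-ingredient dose. Growth control (0 = untreated, 100 = complete kill) was scored visually 21 days later.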

wheat [21] = assay: Test Example 2: soil surface treatment, upland pot test; assay type: in vivo, Triticum spp.; conditions: active ingredient 1000 g/ha, observed 20th to 28th day
Outline: as §2

Row | SMILES | Growth controlling degree (%) Soybean (soybean [1]; active ingredient 1000 g/ha) [%] | Growth controlling degree (%) Crabgrass (crabgrass [2]) [%] | Growth controlling degree (%) Tall morningglory (tall morningglory; active ingredient 1000 g/ha) [%] | Growth controlling degree (%) Prickly sida (prickly sida [3]) [%] | Growth controlling degree (%) Velvetleaf (velvetleaf [4]) [%] | Growth controlling degree (%) Barnyardgrass (barnyardgrass [5]) [%] | Growth controlling degree (%) Green foxtail (green foxtail [6]; active ingredient 1000 g/ha) [%] | Growth controlling degree (%) Redroot pigweed (redroot pigweed [7]) [%] | Growth controlling degree (%) Corn (corn [8]) [%] | Growth controlling degree (%) wheat (wheat [10]) [%] | Growth controlling degree (%) Barnyardgrass (barnyardgrass [11]; active ingredient 1000 g/ha) [%] | Growth controlling degree (%) Rice (rice [12]) [%] | Growth controlling degree (%) Rice (rice [13]; active ingredient 1000 g/ha) [%] | Growth controlling degree (%) Green foxtail (green foxtail [14]) [%] | Growth controlling degree (%) Crabgrass (crabgrass [15]; active ingredient 1000 g/ha) [%] | Growth controlling degree (%) Prickly sida (prickly sida [16]; active ingredient 1000 g/ha) [%] | Growth controlling degree (%) Velvetleaf (velvetleaf [17]; active ingredient 1000 g/ha) [%] | Growth controlling degree (%) Soyabean (soybean [18]) [%] | Growth controlling degree (%) Corn (corn [19]; active ingredient 1000 g/ha) [%] | Growth controlling degree (%) wheat (wheat [21]) [%] | further results
1 | CC(C)C(c1cnccc1C(F)(F)F)N(C)C(=O)Cc1ccc(I)cc1 (centres unmarked) [I-2] | 90 | 90 | 90 | 70 | 0 | 80 | 70 | 70 | 0 | 20 | 90 | 0 | 20 | 80 | 90 | 90 | 90 | 0 | 20 | 0 | Growth controlling degree (%) Barnyardgrass (barnyardgrass [9]; active ingredient 250 g/ha): 100%; Growth controlling degree (%) Japanese ribbon wapato (japanese ribbon wapato; active ingredient 250 g/ha): 50%; Growth controlling degree (%) Japanese bulrush (japanese bulrush; active ingredient 250 g/ha): 90%; Growth controlling degree (%) Redroot pigweed (redroot pigweed [20]; active ingredient 1000 g/ha): 70%; Growth controlling degree (%) Rice (rice (var. Nihonbare); active ingredient 250 g/ha): 20%
2 | CCC(=O)N(C)C(c1cnccc1C(F)(F)F)c1cccc2ccccc12 (centres unmarked) [I-43] | 10 | 100 | 90 | 70 | 0 | 90 | 70 | 60 | 30 | 10 | 70 | 10 | 10 | 98 | 90 | 80 | 95 | 10 | 10 | 40 | Growth controlling degree (%) Barnyardgrass (barnyardgrass [9]; active ingredient 500 g/ha): 100%; Growth controlling degree (%) Japanese ribbon wapato (japanese ribbon wapato; active ingredient 500 g/ha): 90%; Growth controlling degree (%) Japanese bulrush (japanese bulrush; active ingredient 500 g/ha): 100%; Growth controlling degree (%) Redroot pigweed (redroot pigweed [20]; active ingredient 1000 g/ha): 70%; Growth controlling degree (%) Rice (rice (var. Nihonbare); active ingredient 500 g/ha): 35%
3 | CC(C)C(c1cnccc1C(F)(F)F)N(C)C(=O)Cc1ccc(Cl)cc1Cl (centres unmarked) [I-14] |  | 100 |  | 60 | 60 | 100 |  | 85 | 20 |  |  | 10 |  | 100 |  |  |  | 0 |  | 30 | Growth controlling degree (%) Soybean (soybean [1]; active ingredient 500 g/ha): 20%; Growth controlling degree (%) Tall morningglory (tall morningglory; active ingredient 500 g/ha): 95%; Growth controlling degree (%) Green foxtail (green foxtail [6]; active ingredient 500 g/ha): 60%; Growth controlling degree (%) Barnyardgrass (barnyardgrass [9]; active ingredient 500 g/ha): 100%; Growth controlling degree (%) Barnyardgrass (barnyardgrass [11]; active ingredient 500 g/ha): 50%; Growth controlling degree (%) Rice (rice [13]; active ingredient 500 g/ha): 20%; Growth controlling degree (%) Japanese ribbon wapato (japanese ribbon wapato; active ingredient 500 g/ha): 30%; Growth controlling degree (%) Crabgrass (crabgrass [15]; active ingredient 500 g/ha): 70%; Growth controlling degree (%) Prickly sida (prickly sida [16]; active ingredient 500 g/ha): 80%; Growth controlling degree (%) Velvetleaf (velvetleaf [17]; active ingredient 500 g/ha): 70%; Growth controlling degree (%) Japanese bulrush (japanese bulrush; active ingredient 500 g/ha): 98%; Growth controlling degree (%) Corn (corn [19]; active ingredient 500 g/ha): 40%; Growth controlling degree (%) Redroot pigweed (redroot pigweed [20]; active ingredient 500 g/ha): 80%; Growth controlling degree (%) Rice (rice (var. Nihonbare); active ingredient 500 g/ha): 10%
